Measurements as given in patent US10040838B2, “CRHR2 peptide agonists and uses thereof” (JANSSEN PHARMACEUTICA NV, priority 2008, dated 2018).
Values joined by “and” are separate entries in the source; they are usually repeats but may differ in a detail not shown here. Equal entries are not always repeated. No end group written: not given here.

Columns and labels:
human CRHR2 [1] = biological target: T1, human CRHR2 (Homo sapiens, UniProt Q13324); assay: cAMP assay in h-CRHR2 transfected SK-N-MC cells; format: cell-based; conditions: for Experimental nH / nH: Hill slope; for Experimental αmax: maximal asymptote
T1 construct: expressed in transfected cells
T1 sequence (Q13324 1-411): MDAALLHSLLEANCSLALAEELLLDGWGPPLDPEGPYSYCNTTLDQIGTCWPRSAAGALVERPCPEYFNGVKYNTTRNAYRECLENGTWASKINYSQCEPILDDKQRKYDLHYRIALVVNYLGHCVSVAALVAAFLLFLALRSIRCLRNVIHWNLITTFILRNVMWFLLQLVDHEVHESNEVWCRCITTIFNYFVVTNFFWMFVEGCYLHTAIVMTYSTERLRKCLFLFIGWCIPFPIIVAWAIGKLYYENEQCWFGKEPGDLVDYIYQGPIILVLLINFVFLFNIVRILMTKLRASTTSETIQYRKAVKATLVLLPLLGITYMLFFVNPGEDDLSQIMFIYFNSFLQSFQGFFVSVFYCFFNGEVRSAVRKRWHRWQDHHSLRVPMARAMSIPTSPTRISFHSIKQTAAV
Method in brief: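 Intracellular cAMP was read by competition with [125I]-cAMP for an anti-cAMP antibody after HCl lysis of human CRHR2-transfected SK-N-MC cells. Cells had been exposed to peptide, 1 pM to 10 μM, for 60 min at 37 °C in IBMX (10 μM) buffer. A50 and pA50 came from Hill fits; Log DR was computed against h-SCP within each batch.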

human CRHR2 [2] = biological target: T1, human CRHR2; assay: Radioligand binding, membranes of SK-N-MC cells transfected with human CRHR2, [125I]-anti-sauvagine-30; conditions: for CRHR2 nH: Table 15, slope of competition curve
Experimental: The binding profile of h-SCP (SEQ ID NO:1) at CRHR2 was determined in radioligand binding studies in a membrane preparation of SK-N-MC cells stably transfected with human CRHR2 using [^125I]-anti-sauvagine-30 as the radiolabel. […] The solution was then homogenized with a Polytron tissue grinder at a setting of 10 and 7×3 s (Brinkmann Instruments, Westbury, N.Y.). The homogenate was centrifuged at 4° Celsius at 800×g for 5 min with the pellet being discarded. The supernatant was re-centrifuged at 26,892×g for 25 min at 4° Celsius with the final pellet being re-suspended in assay buffer. All binding assays were conducted in 96-well Multiscreen GF/B filter plates (Millipore, Billericay, Mass., U.S.A.) that were pre-soaked in assay buffer with 0.3% PEI for 1 hour. […] The bound radioactivity was separated by filtration using a Multiscreen Resist manifold (Millipore Corp., Billerica, Mass., U.S.A). The filters were washed three times with ice-cold PBS at pH 7.5 and radioactivity retained on the filters was quantified by its liquid scintillation measured by a TopCount counter (Packard BioScience, Boston, Mass., U.S.A). All experiments were performed in triplicate. Data from individual competition curves were expressed as the percentage of specific [^125I]-anti-sauvagine-30 or)[^125I]-([…])-sauvagine binding (B) within each experiment.

[3] = CRHR2, Table 11, listed as h-SRP
[4] = CRHR2, Table 11, listed as h-SCP

`CC[C@H](C)[C@H](NC(=O)[C@H](CO)NC(=O)[C@H](CC(C)C)NC(=O)[C@@H]1CCCN1C(=O)[C@@H]1CCCN1C(=O)[C@H](CC(=O)O)NC(=O)[C@@H](N)CC(=O)O)C(=O)N[C@@H](CC(=O)O)C(=O)N[C@@H](CC(C)C)C(=O)N[C@H](C(=O)N[C@@H](Cc1ccccc1)C(=O)N[C@@H](Cc1c[nH]cn1)C(=O)N[C@@H](CC(C)C)C(=O)N[C@@H](CC(C)C)C(=O)N[C@@H](CCCNC(=N)N)C(=O)N[C@H](C(=O)N[C@@H](CC(C)C)C(=O)N[C@@H](CC(C)C)C(=O)N[C@@H](CCC(=O)O)C(=O)N[C@@H](CC(C)C)C(=O)N[C@@H](C)C(=O)N[C@@H](CCCNC(=N)N)C(=O)N[C@H](C(=O)N[C@@H](CCC(N)=O)C(=O)N[C@@H](CO)C(=O)N[C@@H](CCC(N)=O)C(=O)N[C@@H](CCCNC(=N)N)C(=O)N[C@@H](CCC(=O)O)C(=O)N[C@@H](CCCNC(=N)N)C(=O)N[C@@H](C)C(=O)N[C@@H](CCC(=O)O)C(=O)N[C@@H](CCC(N)=O)C(=O)N[C@@H](CC(N)=O)C(=O)N[C@@H](CCCNC(=N)N)C(=O)N[C@H](C(=O)N[C@H](C(=O)N[C@@H](Cc1ccccc1)C(=O)N[C@@H](CC(=O)O)C(=O)N[C@@H](CO)C(=O)N[C@H](C(N)=O)C(C)C)[C@@H](C)CC)[C@@H](C)CC)[C@@H](C)O)[C@@H](C)O)[C@@H](C)O` [SEQ ID NO: 114, DDPPLSIDLTFHLLRTLLELARTQSQRERAEQNRIIFDSV-NH2] was tested, and the “Experimental nH” value (human CRHR2 [1]; CRHR2, Table 11) was 1.07, the “Experimental αmax” value (human CRHR2 [1]; CRHR2, Table 11) was 110.5 and the “CRHR2 nH” value (human CRHR2 [2]) was 1.19 ± 0.14.

In the case of “HPGSRIVLSLDVPIGLLQILLEQARARAAREQATTNARILARV-NH2 [SEQ ID NO: 117, HPGSRIVLSLDVPIGLLQILLEQARAPAAREQATTNARILARV-NH2, reference compound]”, the “Experimental nH” value (human CRHR2 [1]; [3]) is reported as 1.08 and 1.06 and 0.99, the “Experimental αmax” value (human CRHR2 [1]; [3]) is reported as 113.5 and 108.7 and 98.56 and the “CRHR2 nH” value (human CRHR2 [2]) is reported as 1.26 ± 0.14.

For “TKFTLSLDVPTNIMNLLFNIAKAKNLRAQAAANAHLMAQI-NH2 [SEQ ID NO: 1, TKFTLSLDVPTNIMNLLFNIAKAKNLRAQAAANAHLMAQI-NH2, reference compound]”, the “Experimental pA50” value (human CRHR2 [1]; CRHR2, Table 11, 1 hr at 37° Celsius, listed as h-SCP) was 9.41, the “Experimental nH” value (human CRHR2 [1]; [4]) was 0.99 and 1.04 and 1.39 and 1.55 and the “Experimental αmax” value (human CRHR2 [1]; [4]) was 99.31 and 97.53 and 116.1 and 98.2. It also gave a nH (human CRHR2 [1]; Table 12) of 1.18, a pA50 (human CRHR2 [1]; Table 12, amidation and N-terminal deletions, 3-5 replicate experiments) of 9.41 and a pA50 (human CRHR2 [1]; Table 14) of 9.40. It also gave a nH (human CRHR2 [1]; Table 14) of 1.26, an EC50 (human CRHR2 [1]; text b184, read-out: concentration required for 50% maximum effect (A50)) of 0.4 nM and a pA50 (human CRHR2 [1]; text b201-b202, N-terminal deletions, parent in one batch) of 9.41±0.03. For the same compound, the “CRHR2 nH” value (human CRHR2 [2]) was 1.00 ± 0.04 and the “competition curve / affinity states” value (human CRHR2 [2]; [125I]-anti-sauvagine-30 competition) was “biphasic”.
